Earlier results as cited in US20240316039A1, “METHOD OF REDUCING ELEVATED INTRAOCULAR PRESSURE” (SUN PHARMA ADVANCED RESEARCH COMPANY LIMITED, priority 2021, published 2024).
Where two headings read alike, the source gives them in different places.

System: ocular hypertensive eyes and normotensive eyes

## Brc1c(NC2=NCCN2)ccc2nccnc12 [Brimonidine]
In vivo
  duration of effect: less than 12 hours
  time of peak effect after instillation: ≤ 2 h
Normotensive eyes (less than 21 mm Hg)
  peak IOP reduction: 6-18%
Ocular hypertensive eyes
  peak IOP reduction: 20-25%
